Assay results as given in ChEMBL document CHEMBL1909046, “DrugMatrix in vitro pharmacology data”.
pIC50, pKi: −log10 of the molar value.

Assays:
[1] = target: Delta-type opioid receptor (Homo sapiens, UniProt P41143); type: cell membranes, HEK293, Membrane; settings: hek293; also: in other assays of this panel Not Active means under 50% inhibition at 10 µM
[2] = target: T1, Vasoactive intestinal polypeptide receptor 1 (Homo sapiens, UniProt P32241); type: cell membranes, Membrane; settings: ht-29; also: in other assays of this panel Not Active means under 50% inhibition at 10 µM
T1 sequence (P32241 whole entry): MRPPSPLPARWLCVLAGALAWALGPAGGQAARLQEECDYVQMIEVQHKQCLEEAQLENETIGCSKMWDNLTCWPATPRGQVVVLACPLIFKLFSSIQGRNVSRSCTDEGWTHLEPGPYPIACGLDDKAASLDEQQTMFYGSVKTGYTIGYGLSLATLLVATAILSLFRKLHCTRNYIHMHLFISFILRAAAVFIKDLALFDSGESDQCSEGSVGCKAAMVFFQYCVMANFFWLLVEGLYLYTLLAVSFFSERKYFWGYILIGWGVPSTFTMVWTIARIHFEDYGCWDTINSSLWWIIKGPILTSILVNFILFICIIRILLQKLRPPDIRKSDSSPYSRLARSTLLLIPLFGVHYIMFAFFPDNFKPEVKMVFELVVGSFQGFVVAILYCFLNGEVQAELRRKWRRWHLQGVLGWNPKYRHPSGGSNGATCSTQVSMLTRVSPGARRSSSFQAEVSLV

[3] = target: T2, Neuropeptide Y receptor type 2 (Homo sapiens, UniProt P49146); type: cell membranes, Membrane; settings: kan-ts; also: in other assays of this panel Not Active means under 50% inhibition at 10 µM
T2 sequence (P49146 whole entry): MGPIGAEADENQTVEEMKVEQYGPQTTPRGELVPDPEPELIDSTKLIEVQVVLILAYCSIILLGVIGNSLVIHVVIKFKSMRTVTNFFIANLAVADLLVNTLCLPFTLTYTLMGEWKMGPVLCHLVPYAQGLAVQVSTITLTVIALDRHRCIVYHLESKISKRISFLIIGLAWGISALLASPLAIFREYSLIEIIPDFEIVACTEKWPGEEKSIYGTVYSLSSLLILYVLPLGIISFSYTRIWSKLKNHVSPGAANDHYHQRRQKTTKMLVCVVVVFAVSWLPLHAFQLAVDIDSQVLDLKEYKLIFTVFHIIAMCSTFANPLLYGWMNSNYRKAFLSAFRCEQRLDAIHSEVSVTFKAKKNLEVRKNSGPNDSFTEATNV

[4] = target: T3, Alpha-2C adrenergic receptor (Homo sapiens, UniProt P18825); experiment: DRUGMATRIX: Adrenergic Alpha-2C radioligand binding (ligand: [3H] MK-912); type: cell membranes, Sf9, Membrane; settings: sf9; as to pIC50: call rule not given here
T3 sequence (P18825 whole entry): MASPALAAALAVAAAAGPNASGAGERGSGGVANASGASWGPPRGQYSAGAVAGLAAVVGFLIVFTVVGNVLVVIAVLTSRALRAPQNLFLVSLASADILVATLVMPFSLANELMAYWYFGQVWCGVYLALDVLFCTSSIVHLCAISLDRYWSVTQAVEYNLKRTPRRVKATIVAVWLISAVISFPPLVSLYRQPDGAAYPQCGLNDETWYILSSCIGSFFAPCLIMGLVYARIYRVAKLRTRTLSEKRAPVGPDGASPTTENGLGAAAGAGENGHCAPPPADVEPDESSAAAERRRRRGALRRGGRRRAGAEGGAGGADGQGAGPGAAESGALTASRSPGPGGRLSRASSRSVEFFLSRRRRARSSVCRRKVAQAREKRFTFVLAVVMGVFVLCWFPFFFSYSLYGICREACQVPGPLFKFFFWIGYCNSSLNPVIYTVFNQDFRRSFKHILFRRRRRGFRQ

[5] = target: T4, Alpha-1D adrenergic receptor (Homo sapiens, UniProt P25100); type: cell membranes, HEK293, Membrane; settings: for pIC50: read-out: IC50; for pKi: read-out: Ki; as to all read-outs here: in other assays of this panel Not Active means under 50% inhibition at 10 µM
T4 sequence (P25100 whole entry): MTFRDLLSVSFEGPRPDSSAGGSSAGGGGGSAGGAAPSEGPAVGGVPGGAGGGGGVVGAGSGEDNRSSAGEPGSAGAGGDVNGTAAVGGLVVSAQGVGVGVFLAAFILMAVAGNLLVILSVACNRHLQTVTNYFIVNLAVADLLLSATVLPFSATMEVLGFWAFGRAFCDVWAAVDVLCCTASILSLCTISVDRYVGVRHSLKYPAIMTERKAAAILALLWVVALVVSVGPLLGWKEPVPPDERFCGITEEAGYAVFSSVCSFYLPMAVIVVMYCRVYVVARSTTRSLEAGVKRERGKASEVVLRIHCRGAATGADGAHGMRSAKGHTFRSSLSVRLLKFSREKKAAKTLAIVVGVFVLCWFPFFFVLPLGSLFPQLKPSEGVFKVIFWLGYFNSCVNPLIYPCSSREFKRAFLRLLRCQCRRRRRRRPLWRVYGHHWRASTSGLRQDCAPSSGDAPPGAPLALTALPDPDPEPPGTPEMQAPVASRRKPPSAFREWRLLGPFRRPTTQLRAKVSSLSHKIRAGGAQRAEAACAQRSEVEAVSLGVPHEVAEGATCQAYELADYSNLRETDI

[6] = target: T5, Polyunsaturated fatty acid lipoxygenase ALOX15 (Oryctolagus cuniculus, UniProt P12530); experiment: biochemical; type: tissue-based, Reticulocytes
T5 sequence (P12530 whole entry): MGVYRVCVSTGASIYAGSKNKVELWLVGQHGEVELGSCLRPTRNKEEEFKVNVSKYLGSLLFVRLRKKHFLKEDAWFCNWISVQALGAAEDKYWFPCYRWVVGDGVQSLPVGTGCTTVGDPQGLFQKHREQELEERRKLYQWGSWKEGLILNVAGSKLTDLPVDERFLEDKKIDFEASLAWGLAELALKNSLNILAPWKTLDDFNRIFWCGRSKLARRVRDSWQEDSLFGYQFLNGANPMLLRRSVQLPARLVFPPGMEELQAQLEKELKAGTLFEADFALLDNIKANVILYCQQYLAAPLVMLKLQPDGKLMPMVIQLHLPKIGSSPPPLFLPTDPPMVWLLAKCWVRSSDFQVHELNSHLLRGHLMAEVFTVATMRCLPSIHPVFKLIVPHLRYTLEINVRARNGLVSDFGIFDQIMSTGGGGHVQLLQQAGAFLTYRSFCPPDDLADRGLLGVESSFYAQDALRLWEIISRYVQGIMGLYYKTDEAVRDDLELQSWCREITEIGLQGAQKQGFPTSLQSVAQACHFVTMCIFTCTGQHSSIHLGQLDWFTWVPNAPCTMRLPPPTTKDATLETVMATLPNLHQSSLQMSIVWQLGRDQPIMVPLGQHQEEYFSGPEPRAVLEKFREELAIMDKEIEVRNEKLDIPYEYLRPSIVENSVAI

Chain of Delta-type opioid receptor (P41143 whole entry): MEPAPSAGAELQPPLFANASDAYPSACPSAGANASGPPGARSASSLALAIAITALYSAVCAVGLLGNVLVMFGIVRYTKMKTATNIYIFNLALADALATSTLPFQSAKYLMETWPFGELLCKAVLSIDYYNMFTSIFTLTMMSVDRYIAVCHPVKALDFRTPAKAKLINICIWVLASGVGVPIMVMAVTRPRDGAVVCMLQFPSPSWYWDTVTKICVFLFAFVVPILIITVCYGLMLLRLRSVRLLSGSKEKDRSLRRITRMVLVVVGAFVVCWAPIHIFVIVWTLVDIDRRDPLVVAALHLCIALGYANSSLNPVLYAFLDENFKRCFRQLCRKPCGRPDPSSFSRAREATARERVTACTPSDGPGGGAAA

| Molecule | IC50 [1] | IC50 [2] | IC50 [3] | IC50 [4] | IC50 ([5]; hek293) | IC50 ([6]; reticulocytes) | Ki [1] | Ki [2] | Ki [3] | Ki [4] | Ki ([5]; hek293) | Ki ([6]; reticulocytes) | pIC50 ([6]; read-out: IC50) | pIC50 [5] | pKi [5] |
| --- | --- | --- | --- | --- | --- | --- | --- | --- | --- | --- | --- | --- | --- | --- | --- |
| CCOC(=O)[C@H](CCc1ccccc1)N[C@@H](C)C(=O)N1CCC[C@H]1C(=O)O | Not Active | Not Active | Not Active | Not Active | Not Active | Not Active |  |  |  |  |  |  |  |  |  |
| POLYVINYL ALCOHOL | Not Active | Not Active | Not Active | Not Active | Not Active | Not Active | Not Active | Not Active | Not Active | Not Active | Not Active | Not Active |  |  |  |
| CCC[C@@H]1C[C@@H](C(=O)N[C@@H]([C@H]2O[C@H](SC)[C@H](O)[C@@H](O)[C@H]2O)[C@H](C)Cl)N(C)C1 [CLINDAMYCIN] | Not Active | Not Active | Not Active | Not Active | Not Active | Not Active |  |  |  |  |  |  |  |  |  |
| CN(Cc1cnc2nc(N)nc(N)c2n1)c1ccc(C(=O)N[C@@H](CCC(=O)O)C(=O)O)cc1 [METHOTREXATE] | Not Active | Not Active | Not Active | Not Active | Not Active | Not Active |  |  |  |  |  |  |  |  |  |
| CO[C@@]1(NC(=O)CSCC#N)C(=O)N2C(C(=O)O)=C(CSc3nnnn3C)CS[C@@H]21 [CEFMETAZOLE] | Not Active | Not Active | Not Active | Not Active | Not Active | Not Active |  |  |  |  |  |  |  |  |  |
| C[C@@H]1CC[C@H]2[C@@H](C)C(=O)O[C@@H]3O[C@@]4(C)CC[C@@H]1[C@]32OO4 [ARTEMISININ] | Not Active | Not Active | Not Active | Not Active | Not Active | Not Active |  |  |  |  |  |  |  |  |  |
| CC(C(=O)O)c1ccc(CC2CCCC2=O)cc1 (stereo not drawn) [LOXOPROFEN] | Not Active | Not Active | Not Active | Not Active | Not Active | Not Active |  |  |  |  |  |  |  |  |  |
| CCCCCC[C@H]1C(=O)O[C@H](C)[C@H](NC(=O)c2cccc(NC=O)c2O)C(=O)O[C@@H](C)[C@@H]1OC(=O)CC(C)C [ANTIMYCIN A] | Not Active | Not Active | Not Active | Not Active | Not Active | Not Active |  |  |  |  |  |  |  |  |  |
| C#C[C@]1(O)CC[C@H]2[C@@H]3CCc4cc(O)ccc4[C@H]3CC[C@@]21C [ETHINYL ESTRADIOL] | Not Active | Not Active | Not Active | Not Active | Not Active |  |  |  |  |  |  |  | 5.25 |  |  |
| CC[C@H]1OC(=O)[C@H](C)[C@@H](O[C@H]2C[C@@](C)(OC)[C@@H](O)[C@H](C)O2)[C@H](C)[C@@H](O[C@@H]2O[C@H](C)C[C@H](N(C)C)[C@H]2O)[C@](C)(O)C[C@@H](C)CN(C)[C@H](C)[C@@H](O)[C@]1(C)O [AZITHROMYCIN] | Not Active | Not Active | Not Active | Not Active | Not Active | Not Active |  |  |  |  |  |  |  |  |  |
| COc1ccc2cc(CCC(C)=O)ccc2c1 [NABUMETONE] | Not Active | Not Active | Not Active | Not Active | Not Active | Not Active |  |  |  |  |  |  |  |  |  |
| CCCCC1C(=O)N(c2ccccc2)N(c2ccccc2)C1=O [PHENYLBUTAZONE] | Not Active | Not Active | Not Active | Not Active | Not Active | Not Active |  |  |  |  |  |  |  |  |  |
| C=C1/C(=C\C=C2/CCC[C@]3(C)[C@@H]([C@H](C)CCCC(C)C)CC[C@@H]23)C[C@@H](O)C[C@@H]1O [ALFACALCIDOL] | Not Active | Not Active | Not Active | Not Active | Not Active | Not Active |  |  |  |  |  |  |  |  |  |
| NC(=O)N1c2ccccc2C=Cc2ccccc21 [CARBAMAZEPINE] | Not Active | Not Active | Not Active | Not Active | Not Active | Not Active |  |  |  |  |  |  |  |  |  |
| COc1ccc(Cc2nccc3cc(OC)c(OC)cc23)cc1OC [PAPAVERINE] | Not Active | Not Active | Not Active | Not Active | Not Active | Not Active |  |  |  |  |  |  |  |  |  |
| CNC(=C[N+](=O)[O-])NCCSCc1csc(CN(C)C)n1 [NIZATIDINE] | Not Active | Not Active | Not Active | Not Active | Not Active | Not Active |  |  |  |  |  |  |  |  |  |
| COc1ccccc1OCC(O)CO (stereo not drawn) [GUAIFENESIN] | Not Active | Not Active | Not Active | Not Active | Not Active | Not Active |  |  |  |  |  |  |  |  |  |
| O=C(c1ccccc1Cl)N1CCC(Cc2ccccc2)CC1 | Not Active | Not Active | Not Active | Not Active | Not Active | Not Active |  |  |  |  |  |  |  |  |  |
| Cc1cccc(Nc2cc(Cl)nc(SCC(=O)O)n2)c1C [PIRINIXIC ACID] | Not Active | Not Active | Not Active | Not Active | Not Active | Not Active |  |  |  |  |  |  |  |  |  |
| N=C(N)N/N=C/c1c(Cl)cccc1Cl [GUANABENZ] | Not Active | Not Active | Not Active |  |  | Not Active |  |  |  |  |  |  |  | 6.33 | 6.63 |
| CC(C)C[C@H]1C(=O)N2CCC[C@H]2[C@]2(O)O[C@](NC(=O)[C@@H]3C=C4c5cccc6[nH]c(Br)c(c56)C[C@H]4N(C)C3)(C(C)C)C(=O)N12 [BROMOCRIPTINE] | Not Active | Not Active | Not Active |  |  | Not Active |  |  |  |  |  |  |  | 7.52 | 7.82 |
| CN1C[C@H](C(=O)N[C@]2(C)O[C@@]3(O)[C@@H]4CCCN4C(=O)[C@H](Cc4ccccc4)N3C2=O)C[C@@H]2c3cccc4[nH]cc(c34)C[C@H]21 [DIHYDROERGOTAMINE] | Not Active | Not Active | Not Active |  |  | Not Active |  |  |  |  |  |  |  | 7.54 | 7.85 |
